Data set [1] can be described thus: Genotoxicity in human HepG2 cells assessed as induction of DNA strand breaks at 1 mM measured after 2 hrs by alkali comet assay. Particulars: hepg2, 1000 µM.
The nature of data set [2]: Genotoxicity in human HepG2 cells assessed as induction of alkali labile sites at 1 mM measured after 2 hrs by alkali comet assay. Particulars: hepg2, 1000 µM.

The structures appear in SMILES notation.

Turning to `COS(C)(=O)=O` [METHANESULFONIC ACID METHYL ESTER], the Activity result in data set [1] and in data set [2] was “Toxic” each time.
